From patent US9907760B2 (LIBRAGEN, priority 2010, dated 2018) come the findings set out here.

For one experiment, the system named is human skin explants. Nature of the experiment: General morphology of living human skin explants (Masson trichrome). It counts as cell-based. How it is done: In particular, the following parameters were evaluated: • general skin morphology after staining with Masson trichrome, • acid glycosaminoglycan (GAG) content after alcian blue staining, • expression level of the hyaluronic acid CD44 receptor after immunolabeling of this receptor.
Thirty-three explants (approximately 10 mm in diameter) were taken from a person (P712AB36) undergoing abdominoplasty. The explants were divided into 11 groups of three explants and placed in special skin explant survival medium.
RetinOx+Day cream was applied on the explants at 1 mg/cm^2 on days D0, D2, D3, D6 and D8.
On D0, D2, D3, D6 and D8, 30 μA of products P1, P2 and P3 were deposited on filter paper disks placed on the explants.
On D0, the three explants in group CO were sampled and cut in two. One-half was fixed in ordinary Bouin's solution and the other half stored at −80° C. On D6 and D10, three explants from each group were sampled and treated in the same manner.
After 48 hours of fixing in ordinary Bouin's solution, samples were dried and impregnated in paraffin using a Leica 1020 automated tissue processor, then embedded according to operating procedure MO-H-153 using a Leica EG 1160 embedding station. 5 μm sections were prepared according to operating procedure MO-H-173 using a Leica RM 2125 Minot microtome and mounted on Superfrost® histologic glass microscope slides.
General morphology was studied on paraffin sections stained with Masson trichrome, Goldner variant, according to operating procedure MO-H-157.

A further experiment relates to normal human fibroblasts. Nature of the experiment: Procollagen 1 production by normal human fibroblasts treated with supernatant of treated keratinocytes (EIA). The format is cell-based. As to conditions: supernatant on fibroblasts 48 hrs; for % stimulation (procollagen 1): vs Control. How it is done: This experiment was carried out according to the method described in example 3. Fibroblast supernatants, containing procollagen 1, were collected and assayed immediately for procollagen 1 by means of an EIA microtiter plate.
After 48 hours of treatment, NHF cell supernatants were collected and centrifuged.
Procollagen 1 was assayed in the cell supernatants by the method described in the Procollagen Type 1 C-peptide EIA kit (MK101, Takara). This is an EIA assay with spectrophotometric detection at 450 nm (Safire, Tecan).
Duplicate determinations were carried out for two wells whereas the third well was assayed only once.
Optical densities (OD) measured on each sample were plotted on a graph (specific standard curve in the kit). The procollagen 1 concentration was expressed in ng/ml.
As in example 3, the protein content was determined in the cell pellets of the supernatants for which procollagen 1 was assayed.
Thus, the final result was expressed as ng/ml of procollagen 1 per μg of protein. A mean value was calculated for wells treated with the same concentration of test product. This mean was compared with the mean of the control wells (Student t test−comparison of means, significant difference at 95% if p<0.05* and at 99% if p<0.01**).
The percent stimulation produced by the test products was determined by comparing the mean values of the control and treatment conditions: % Stimulation=(Treated−Control)/Control

`CC(=O)N[C@H]1C(O)O[C@H](COP(=O)(O)O)[C@@H](O)[C@@H]1O` (stereo partly drawn) [NAG6P, N-acetylglucosamine-6-phosphate]: the General morphology result in the experiment on human skin explants (D10, NAG6P) was “considerable modifications of epidermal morphology”; in the experiment on human skin explants (D10, NAG6P 0.01% (product P3)) it was “clear reorganization/strengthening of the dermal-epidermal junction”; in the experiment with human skin explants (D10, NAG6P, listed as N-acetylglucosamine-6-phosphate), “does not cause acanthosis”. Besides, the “Procollagen 1” value in the experiment with normal human fibroblasts (5 mM on keratinocytes 48 hrs) worked out at 653.4 ± 36.6 ng/mL; with normal human fibroblasts (10 mM on keratinocytes 48 hrs), 677.7 ± 64.6 ng/mL. Further, the entries for the “Procollagen 1 (ng/ml/μg prot.)” value with normal human fibroblasts (5 mM on keratinocytes 48 hrs) and in the experiment with normal human fibroblasts (10 mM on keratinocytes 48 hrs) were 74.6 ± 5.3 ng/ml/μg prot and 72.7 ± 4.4 ng/ml/μg prot, respectively. The “% stimulation (procollagen 1)” value in the experiment on normal human fibroblasts (5 mM on keratinocytes 48 hrs) is given as 2%; with normal human fibroblasts (10 mM on keratinocytes 48 hrs), −1%.
